Measurements published in patent US20020148006A1, “Transgenic plants with modified sterol compositions” (Asgrow Seed Company, L.L.C., priority 1996, published 2002).

Test system: (S)-adenosyl-L-methionine: Δ^24-sterol methyl transferase (SMT)
Test: Sterol specificity (substrate methylation) of SMT enzyme from 4-day corn seedlings
Assay type: biochemical, Zea mays (corn)
Details: same for the first and second methylation reactions; read-out: Km for the coenzyme
Experimental: The sterol specificity of the microsome-bound and soluble SMT enzyme from 4-day corn seedlings was determined in order to elucidate the enzymatic basis for the plant sterols identified in Example 1.

Row | Molecule | Km [µM]
1 | (S)-adenosyl-L-methionine [coenzyme] | 5

Same assay, conditions: soluble SMT from corn seedlings; substrates marked (C1), first methyl transfer; BG = background

Row | Molecule | Enzyme Activity
2 | CC(C)=CCC[C@@H](C)[C@H]1CC[C@@]2(C)C3=C(CC[C@]12C)[C@@]1(C)CC[C@H](O)C(C)(C)[C@@H]1CC3 [Lanosterol] | 24,384 dpm/min
3 | CC(C)=CCCC(C)C1CC[C@@]2(C)C3=C(CCC12C)C1(C)CCC(O)CC1CC3 (stereo partly drawn) [14α-Methylzymosterol] | 3,376 dpm/min
4 | CC(C)=CCC[C@@H](C)[C@H]1CC[C@@]2(C)[C@@H]3CC[C@H]4C[C@@H](O)CC[C@@]45C[C@@]35CC[C@]12C [24-Dehydropollinstanol] | 8,253 dpm/min
5 | CC(C)=CCC[C@@H](C)[C@H]1CC[C@H]2C3=C(CC[C@]12C)[C@@]1(C)CC[C@H](O)[C@@H](C)[C@@H]1CC3 [4α-Methylzymosterol] | 10,504 dpm/min
6 | CC(C)=CCC[C@@H](C)[C@H]1CC[C@@]2(C)[C@@H]3CC[C@H]4C(C)(C)[C@@H](O)CC[C@]4(C)C3=CC[C@]12C [Parkeol] | 6,002 dpm/min
7 | CC(C)=CCC[C@@H](C)[C@H]1CC[C@@]2(C)[C@@H]3CC[C@H]4[C@H](C)[C@@H](O)CC[C@@]45C[C@@]35CC[C@]12C [31-Norcycloartenol] | 18,757 dpm/min

Same assay, conditions: soluble SMT from corn seedlings; substrates marked (C2), second methyl transfer; BG = background

Row | Molecule | Enzyme Activity
8 | C=C(CC[C@@H](C)[C@H]1CC[C@H]2C3=C(CC[C@]12C)[C@@]1(C)CC[C@H](O)[C@@H](C)C1CC3)C(C)C (stereo partly drawn) [4α-Methylergosta-8,24(28)-dienol] | 1,500 dpm/min

Same assay, conditions: soluble SMT; (C1), first methyl transfer

Row | Molecule | % Activity, relative to cycloartenol methylation
9 | CC(C)=CCC[C@@H](C)[C@H]1CC[C@@]2(C)C3=C(CC[C@]12C)[C@@]1(C)CC[C@H](O)C(C)(C)[C@@H]1CC3 [Lanosterol] | 65 (C1) %
10 | CC(C)=CCCC(C)C1CC[C@@]2(C)C3=C(CCC12C)C1(C)CCC(O)CC1CC3 (stereo partly drawn) [14α-Methylzymosterol] | 9 (C1) %
11 | CC(C)=CCC[C@@H](C)[C@H]1CC[C@@]2(C)[C@@H]3CC[C@H]4C[C@@H](O)CC[C@@]45C[C@@]35CC[C@]12C [24-Dehydropollinstanol] | 22 (C1) %
12 | CC(C)CCC[C@@H](C)[C@H]1CC[C@H]2C3=C(CC[C@]12C)[C@@]1(C)CCC(O)CC1CC3 (stereo partly shown) [Cholest-8-enol] | 0 (C1) %
13 | CC(C)=CCC[C@@H](C)[C@H]1CC[C@H]2C3=C(CC[C@]12C)[C@@]1(C)CC[C@H](O)[C@@H](C)[C@@H]1CC3 [4α-Methylzymosterol] | 28 (C1) %
14 | CC(C)=CCC[C@@H](C)[C@H]1CC[C@H]2C3=C(CC[C@]12C)[C@@]1(C)CCCCC1CC3 (stereo partly shown) [3-Desoxyzymosterol] | 0 (C1) %
15 | CC(C)=CCC[C@@H](C)[C@H]1CC[C@@]2(C)[C@@H]3CC[C@H]4C(C)(C)[C@@H](O)CC[C@]4(C)C3=CC[C@]12C [Parkeol] | 16 (C1) %
16 | CC(C)=CCC[C@@H](C)[C@H]1CC[C@@]2(C)[C@@H]3CC[C@H]4[C@H](C)[C@@H](O)CC[C@@]45C[C@@]35CC[C@]12C [31-Norcycloartenol] | 50 (C1) %

Same assay, conditions: soluble SMT; (C2), second methyl transfer

Row | Molecule | % Activity, relative to cycloartenol methylation
17 | C=C(CC[C@@H](C)[C@H]1CC[C@H]2[C@@H]3CC=C4C[C@@H](O)CC[C@]4(C)[C@H]3CC[C@]12C)C(C)C [Ergosta-5,24(28)-dienol] | 0 (C2) %
18 | C=C(CC[C@@H](C)[C@H]1CC[C@H]2C3=C(CC[C@]12C)[C@@]1(C)CC[C@H](O)[C@@H](C)C1CC3)C(C)C (stereo partly drawn) [4α-Methylergosta-8,24(28)-dienol] | 4 (C2) %
19 | C=C(CC[C@@H](C)[C@H]1CC[C@H]2C3=C(CC[C@]12C)[C@@]1(C)CC[C@H](O)CC1CC3)C(C)C (stereo partly shown) [Ergosta-8,24(28)-dienol] | 0 (C2) %
20 | C=C(CC[C@@H](C)[C@H]1CC[C@@]2(C)[C@@H]3CC[C@H]4[C@H](C)[C@@H](O)CC[C@@]45C[C@@]35CC[C@]12C)C(C)C [Cycloeucalenol] | 0 (C2) %

Test system: Heliothis zea
Test: Sterol utilization and metabolism by Heliothis zea reared on artificial diet with sterol supplement
Details: Table 11; sterol 200 ppm in diet
Experimental: Heliothis zea (corn earworm) was reared on an artificial diet treated with different sterol supplements to study the relation between sterol structure and utilization in insects. H. zea eggs were used to establish a disease-free stock colony.
The stock insects were reared using sterile procedures on a pinto bean-based diet. Moths were fed 10% sucrose. Cultures were maintained at 27±1° C., at 40±10% relative humidity on a 14:10 light-dark photoperiod and an artificial diet was used to rear the insects on different sterol supplements. The experimental diet contained agar, which is known to contain trace contamination of cholesterol, otherwise the experimental diet was sterol-free.
Sterols were solubilized in acetone. Aliquots of the solutions were added to the sterol-free diet in a mortar, the material mixed thoroughly with the diet, and the organic solvent allowed to evaporate. Sterols were supplied to the medium at 200 ppm (equivalent to 1 mg of sterol per experimental vessel containing one insect).
By day 20, H. zea larva are in the final stage of larval development (sixth instar), after which the insects may pupate. A single neonate larva was placed in an experimental culture vial and allowed to grow for 20 days. The fresh weight, length and instar stage of 20-day larva were recorded.
In some treatments, the larvae were allowed to grow for another 4 days to determine whether they could pupate properly and develop into moth forms.
These fatty alcohols may comigrate with sterols during some forms of chromatography and interfere with sterol quantitation, particularly of cholesterol. Therefore, in order to confirm the identity and amount of cholesterol in the insect an aliquot of the NSF was injected into a HPLC column and the fraction corresponding to cholesterol was examined by GC-MS.

Row | Molecule | Instar reached by day 20
21 | CC(C)=CCC[C@@H](C)[C@H]1CC[C@@]2(C)C3=C(CC[C@]12C)[C@@]1(C)CC[C@H](O)C(C)(C)[C@@H]1CC3 [Lanosterol] | 3
22 | CC(C)=CCC[C@@H](C)[C@H]1CC[C@@]2(C)[C@@H]3CC[C@H]4C[C@@H](O)CC[C@@]45C[C@@]35CC[C@]12C [24-Dehydropollinstanol] | 3
23 | CC(C)CCC[C@@H](C)[C@H]1CC[C@H]2C3=C(CC[C@]12C)[C@@]1(C)CCC(O)CC1CC3 (stereo partly shown) [Cholest-8-enol] | 3

Same assay, conditions: Table 11; sterol 200 ppm in diet; 20-day larvae; relative to growth on cholesterol normalized to 100%

Row | Molecule | Growth response [%]
24 | CC(C)=CCC[C@@H](C)[C@H]1CC[C@@]2(C)C3=C(CC[C@]12C)[C@@]1(C)CC[C@H](O)C(C)(C)[C@@H]1CC3 [Lanosterol] | 5
25 | CC(C)=CCC[C@@H](C)[C@H]1CC[C@@]2(C)[C@@H]3CC[C@H]4C[C@@H](O)CC[C@@]45C[C@@]35CC[C@]12C [24-Dehydropollinstanol] | 5
26 | CC(C)CCC[C@@H](C)[C@H]1CC[C@H]2C3=C(CC[C@]12C)[C@@]1(C)CCC(O)CC1CC3 (stereo partly shown) [Cholest-8-enol] | 5

Same assay, conditions: in vivo

Row | Molecule | Sterol composition (as % total sterol): cholesterol [%] | Sterol composition (as % total sterol): ts [%] | Total sterol µg/insect [µg/insect]
27 | CC(C)=CCC[C@@H](C)[C@H]1CC[C@@]2(C)[C@@H]3CC[C@H]4C[C@@H](O)CC[C@@]45C[C@@]35CC[C@]12C [24-Dehydropollinstanol] | 14 | 86 | 0.6

Same assay, conditions: test sterol as sole added dietary sterol

Row | Molecule | Utilization by H. zea / support of larval growth and development (words)
28 | CC(C)=CCC[C@@H](C)[C@H]1CC[C@@]2(C)C3=C(CC[C@]12C)[C@@]1(C)CC[C@H](O)C(C)(C)[C@@H]1CC3 [Lanosterol] | could not be met satisfactorily
29 | CC(C)CCC[C@@H](C)[C@H]1CC[C@H]2C3=C(CC[C@]12C)[C@@]1(C)CCC(O)CC1CC3 (stereo partly shown) [Cholest-8-enol] | inability of cholest-8-enol to support growth
